Test results taken from patent publication US8227409B2, “Diketopiperazine microparticles with defined isomer contents” (MannKind Corporation, priority 2009, dated 2012).

Assays:
[1] = Laser diffraction of powder emitted from dry powder inhalers: VMGD and container emptying; assay type: physicochemical; conditions: 56% trans, SSA 55, pressure drop 4 kPa
Source text: Laser diffraction of dry powder formulations emitted from dry powder inhalers is a common methodology employed to characterize the level of de-agglomeration subjected to a powder. The methodology indicates a measure of geometric size rather than aerodynamic size as occurring in industry standard impaction methodologies. Typically, the geometric size of the emitted powder includes a volumetric distribution characterized by the median particle size, VMGD. Importantly, geometric sizes of the emitted particles are discerned with heightened resolution as compared to the aerodynamic sizes provided by impaction methods. Smaller sizes are preferred and result in greater likelihood of individual particles being delivered to the pulmonary tract. Thus, differences in inhaler de-agglomeration and ultimate performance can be easier to resolve with diffraction. In these experiments, inhalers were tested with laser diffraction at pressures analogous to actual patient inspiratory capacities to determine the effectiveness of the inhalation system to de-agglomerate powder formulations. Specifically, the formulations included cohesive diketopiperazine powders with an active insulin loaded ingredient and without. […] Reported in Table 6 are a VMGD and an efficiency of the container emptying during the testing. FDKP powders have an approximate Carr's index of 50 and TI powder has an approximate Carr's index of 40.

[2] = Solubility (stated in words); assay type: physicochemical

O=C(O)/C=C/C(=O)NCCCCC1NC(=O)C(CCCCNC(=O)/C=C/C(=O)O)NC1=O (stereo not drawn) [FDKP, 2,5-diketo-3,6-bis(N-fumaryl-4-aminobutyl)piperazine]
% CE ([1]; DPI 2): 92.5% | VMGD ([1]; DPI 2): 6.800 micron | % CE ([1]; MedTone): 89.5% | VMGD ([1]; MedTone): 21.200 micron | solubility ([2]; at neutral or basic pH): readily soluble | solubility ([2]; in acid): low solubility
